≈ marks a conversion by molar mass, not a printed value. Calls of active or inactive are those of the source. The calls are words filed in the database; no cut-off is given here.
Legend:
Mus musculus [1] = experiment: Antiinflammatory activity in antigen KLH-TNP- treated mouse model of B-cell adaptive immunity assessed as inhibition of secondary response at 10 mg/kg, po administered twice daily from day 21 to day 31 relative to control; format: functional; design: scale not given: the % may be the effect or the level left; conditions: time 10 day
[2] = Half life in po dosed mouse; format: ADME, organism-based; conditions: in vivo
[3] = Intrinsic clearance in rat; format: ADME
Mus musculus [4] = experiment: Antiinflammatory activity in antigen KLH-TNP- treated mouse model of B-cell adaptive immunity assessed as inhibition of secondary response at 3 mg/kg, po administered twice daily from day 21 to day 31 relative to control; format: functional; design: scale not given: the % may be the effect or the level left; conditions: time 10 day
Mus musculus [5] = experiment: Antiinflammatory activity in anti-KLH treated mouse model of B-cell adaptive immunity assessed as inhibition of secondary response at […] mg/kg, po administered twice daily from day 21 to day 31 relative to control; format: functional, organism-based; conditions: dose 3.0 mg/kg, time 10.0 day
Mus musculus [6] = experiment: Antiinflammatory activity in antigen KLH-TNP- treated mouse model of B-cell adaptive immunity assessed as inhibition of secondary response at 30 mg/kg, po administered twice daily from day 21 to day 31 relative to control; format: functional; design: scale not given: the % may be the effect or the level left; conditions: dose 3 mg/kg; time 10 day
Mus musculus [7] = experiment: Antiinflammatory activity in antigen KLH-TNP- treated po dosed mouse model of B-cell adaptive immunity assessed as inhibition of secondary response administered twice daily from day 21 to day 31; format: functional, organism-based; conditions: dose mg/kg 3-30, time 10.0 day
[8] = Oral bioavailability in mouse at 10 mg/kg; format: ADME, organism-based; conditions: in vivo
[9] = target: Methionine aminopeptidase 2 (Mus musculus, UniProt O08663); experiment: Inhibition of MetAP2 in mouse B cells assessed as reduction in IgG secretion; format: cell-based, B-cell
Chain of Methionine aminopeptidase 2 (O08663 whole entry): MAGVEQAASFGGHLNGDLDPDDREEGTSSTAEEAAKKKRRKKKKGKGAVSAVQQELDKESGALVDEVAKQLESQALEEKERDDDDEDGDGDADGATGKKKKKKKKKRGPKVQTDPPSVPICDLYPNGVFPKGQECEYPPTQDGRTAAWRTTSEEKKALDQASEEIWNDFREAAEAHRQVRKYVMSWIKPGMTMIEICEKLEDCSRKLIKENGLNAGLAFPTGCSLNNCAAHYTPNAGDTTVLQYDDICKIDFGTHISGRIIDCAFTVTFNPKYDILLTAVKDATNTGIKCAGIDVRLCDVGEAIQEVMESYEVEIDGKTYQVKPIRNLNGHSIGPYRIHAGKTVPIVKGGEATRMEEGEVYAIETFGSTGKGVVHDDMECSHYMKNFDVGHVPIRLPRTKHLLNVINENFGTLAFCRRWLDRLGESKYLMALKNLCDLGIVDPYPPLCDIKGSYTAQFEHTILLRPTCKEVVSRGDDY

[10] = Solubility of the compound; format: physicochemical
[11] = Intrinsic clearance in human; format: ADME
[12] = Chromatographic hydrophobicity index, log D of the compound at pH 7.4; format: physicochemical; conditions: buffer
[13] = Clearance in po dosed mouse; format: ADME, organism-based; conditions: in vivo
[14] = Volume of distribution at steady state in po dosed mouse; format: ADME, organism-based; conditions: in vivo

Row | half-life [2] [h] | CLint scaled [3] [mL/min/kg] | bioavailability [8] [%] | IC50 [9] [nM] | solubility [10] [µg/mL] | CLint scaled [11] [mL/min/kg] | chromatographic logD [12] | CL/F [13] [mL/min/kg] | Vdss [14] [L/kg] | SMILES | Activity (Mus musculus [1]) [%] | Activity (Mus musculus [4]) [%] | Activity (Mus musculus [5]) | Activity (Mus musculus [6]) [%] | Activity (Mus musculus [7])
1 | 4.5 | < 1 | 89 | 39.8 | 629 (≈ 1520 µM) | < 1 | 2.8 | 45 | 7.7 | CC(C)Oc1cc(N2CCNCC2)ccc1-c1c(C(N)=O)[nH]c2cc(F)c(F)cc12 | 39 | 15 | Active | 89 | Dose-dependent effect
2 |  | < 1 |  |  |  | < 1 | 3.1 |  |  | CC(C)Oc1cc(N2CCNCC2)ccc1-c1c(C(N)=O)[nH]c2cc(F)c(Cl)cc12 |  |  |  |  | 
